Reference: the supplement of paper PMC10331698
± gives the standard deviation of the averaged measurements.

Tests used:
Assay in all cases: level (log10 ratio to DMSO vehicle control); higher = higher biomarker level / cell amount than vehicle control
[1] = compound: FC(F)(F)C(F)(F)C(F)(F)C(F)(F)C(F)(F)C(F)(F)C(F)(F)I [1-Iodopentadecafluoroheptane]; details: in DMSO
Method: (§1)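 BioMAP Diversity Plus panel of 12 human primary cell co-culture systems (3C, 4H, LPS, SAg, BT, BF4T, BE3C, CASM3C, HDF3CGF, KF3CT, MyoF, Mphg). Compounds were added 1 h before stimulation and left for 24 h (MyoF 48 h; BT 72 h for soluble read-outs or 6 d for IgG). Biomarkers were read by ELISA, cytotoxicity by SRB, PBMC viability and proliferation by Alamar Blue. Each well value was divided by the mean of 8 DMSO control wells on the same plate and log10 transformed; duplicate blinded samples were tested at 4 concentrations.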

[2] = compound: COC(=O)C(F)(F)C(F)(F)OC(F)(C(F)(F)F)C(F)(F)OC(F)=C(F)F [Methyl perfluoro(3-(1-ethenyloxypropan-2-yloxy)propanoate)]; details: in DMSO
Method: as §1

[3] = compound: O=S(=O)(O)CCC(F)(F)C(F)(F)C(F)(F)C(F)(F)C(F)(F)C(F)(F)F [6:2 Fluorotelomer sulfonic acid]; details: in DMSO
Method: as §1

[4] = compound: FC(F)(F)C(F)(F)CNCC(F)(F)C(F)(F)F [Bis(1H,1H-perfluoropropyl)amine]; details: in DMSO
Method: as §1

[5] = compound: NC(=O)C(F)(F)C(F)(F)C(F)(F)C(F)(F)F [Nonafluoropentanamide]; details: in DMSO
Method: as §1

[6] = compound: C=CC(=O)OCC(F)(F)C(F)(F)C(F)(F)COC(=O)C=C [1H,1H,5H,5H-Perfluoro-1,5-pentanediol diacrylate]; details: 6700 nM; in DMSO
Method: as §1

[7] = compound: OCC(F)(F)C(F)(F)C(F)(F)CO [Hexafluoroamylene glycol]; details: in DMSO
Method: as §1

[8] = compound: NS(=O)(=O)C(F)(F)C(F)(F)C(F)(F)C(F)(F)C(F)(F)C(F)(F)F [Perfluorohexanesulfonamide]; details: in DMSO
Method: as §1

Row | Test System | level (log10) ([1]; 6700 nM) | level (log10) ([1]; 20000 nM) | level (log10) ([2]; 6700 nM) | level (log10) ([2]; 20000 nM) | level (log10) ([3]; 6700 nM) | level (log10) ([3]; 20000 nM) | level (log10) ([3]; 60000 nM) | level (log10) ([4]; 6700 nM) | level (log10) ([4]; 20000 nM) | level (log10) ([4]; 60000 nM) | level (log10) ([5]; 6700 nM) | level (log10) ([5]; 20000 nM) | level (log10) ([5]; 60000 nM) | level (log10) [6] | level (log10) ([7]; 6700 nM) | level (log10) ([7]; 20000 nM) | level (log10) ([7]; 60000 nM) | level (log10) ([8]; 6700 nM) | level (log10) ([8]; 20000 nM) | level (log10) ([8]; 60000 nM)
1 | MyoF:Collagen III | -0.0365 ± 0.005 | -0.311 ± 0.093 | -0.0145 ± 0.013 | -0.005 ± 0.0071 | -0.011 ± 0.013 | -0.02 ± 0.017 | -0.0055 ± 0.015 | 0.003 ± 0.016 | 0.0025 ± 0.005 | -0.0035 ± 0.0092 | -0.029 ± 0.021 | -0.0335 ± 0.036 | -0.0145 ± 0.0092 | -0.027 ± 0.013 | -0.007 ± 0.017 | -0.005 ± 0.018 | 0.005 ± 0.017 | 0.009 ± 0.0071 | 0.008 ± 0.0014 | 0.0025 ± 0.0035
2 | MyoF:CD106/VCAM-1 | -0.091 ± 0.0057 | -0.448 ± 0.019 | -0.03 ± 0.0014 | -0.0365 ± 0.019 | -0.003 ± 0.0028 | -0.012 ± 0.0099 | -0.0095 ± 0.005 | 0.0045 ± 0.0078 | 0.0065 ± 0.005 | 0.0095 ± 0.0021 | -0.016 ± 0.0014 | -0.003 | 0.0055 ± 0.016 | -0.212 ± 0.015 | -0.0015 ± 0.0092 | -0.022 ± 0.02 | -0.0045 ± 0.015 | -0.0105 ± 0.021 | -0.0165 ± 0.0021 | -0.0655 ± 0.0078
3 | lMphg:CD40 | -0.0175 ± 0.052 | -0.0365 ± 0.046 | -0.0295 ± 0.0064 | -0.0365 ± 0.028 | -0.017 ± 0.011 | -0.022 ± 0.028 | -0.05 ± 0.033 | 0.006 ± 0.0057 | 0.006 ± 0.0028 | -0.0065 ± 0.0092 | 0.0255 ± 0.03 | 0.0255 ± 0.029 | -0.0095 ± 0.012 | -0.0585 ± 0.015 | -0.0175 ± 0.0021 | -0.002 ± 0.0028 | -0.0285 ± 0.039 | -0.02 ± 0.021 | -0.043 ± 0.031 | -0.146 ± 0.021
4 | HDF3CGF:Collagen I | 0.017 ± 0.033 | -0.005 ± 0.017 | 0.013 ± 0.095 | 0.069 | -0.031 ± 0.095 | -0.007 ± 0.086 | 0.056 ± 0.11 | -0.0295 ± 0.015 | -0.015 ± 0.017 | 0.0085 ± 0.056 | 0.02 ± 0.031 | 0.013 ± 0.057 | 0.067 ± 0.033 | 0.117 ± 0.0085 | -0.005 ± 0.047 | 0.005 ± 0.09 | 0.0485 ± 0.12 | 0.005 ± 0.035 | 0.0075 ± 0.011 | -0.0435 ± 0.015
5 | HDF3CGF:CXCL11/I-TAC | -0.019 ± 0.0057 | -0.0405 ± 0.0092 | -0.0285 ± 0.018 | -0.272 ± 0.0078 | -0.0445 ± 0.1 | -0.0605 ± 0.088 | -0.0885 ± 0.091 | -0.0065 ± 0.0092 | -0.0045 ± 0.013 | 0.0195 ± 0.035 | -0.0095 ± 0.021 | 0.009 ± 0.024 | -0.0155 ± 0.011 | -0.41 ± 0.045 | 0.001 ± 0.04 | -0.015 ± 0.088 | -0.044 ± 0.1 | 0.0075 ± 0.018 | -0.028 ± 0.011 | -0.189 ± 0.033
6 | 3C:CXCL8/IL-8 | 0.004 ± 0.0057 | 0.0655 ± 0.021 | 0.0075 ± 0.046 | 0.0485 ± 0.061 | -0.034 ± 0.055 | -0.0325 ± 0.053 | 0.06 ± 0.0085 | -0.0005 ± 0.0092 | 0.0005 ± 0.052 | 0.0445 ± 0.093 | -0.001 ± 0.016 | -0.0145 ± 0.0092 | 0.0345 ± 0.04 | -0.0045 ± 0.018 | -0.0275 ± 0.069 | -0.022 ± 0.042 | 0.012 ± 0.028 | 0.011 ± 0.023 | 0.0415 ± 0.0092 | 0.024 ± 0.013
7 | CASM3C:CCL2/MCP-1 | -0.01 ± 0.0042 | 0.005 ± 0.018 | -0.001 ± 0.0014 | 0.008 ± 0.016 | -0.0125 ± 0.011 | -0.01 | 0.0225 ± 0.032 | -0.0065 ± 0.013 | -0.0205 ± 0.015 | -0.0055 ± 0.04 | -0.014 ± 0.0028 | 0.001 ± 0.0099 | -0.001 ± 0.0014 | 0 ± 0.0085 | -0.0085 ± 0.0064 | -0.014 ± 0.011 | 0.012 ± 0.047 | -0.006 ± 0.0014 | 0.0015 ± 0.012 | 0.028 ± 0.017
8 | HDF3CGF:Collagen III | -0.024 ± 0.014 | -0.023 ± 0.028 | -0.059 ± 0.072 | -0.079 ± 0.016 | -0.0555 ± 0.015 | -0.0115 ± 0.019 | 0.03 ± 0.093 | -0.002 ± 0.018 | -0.002 ± 0.0042 | 0.0325 ± 0.036 | 0.033 ± 0.0014 | 0.026 ± 0.0014 | 0.049 ± 0.0099 | -0.177 ± 0.015 | 0.009 ± 0.051 | 0.0115 ± 0.064 | 0.0515 ± 0.026 | 0.0055 ± 0.022 | 0.0305 ± 0.011 | -0.1 ± 0.018
9 | MyoF:MMP-1 | 0.145 ± 0.045 | 0.547 ± 0.018 | 0.021 ± 0.035 | 0.111 ± 0.084 | -0.018 ± 0.021 | -0.058 ± 0.0042 | -0.0145 ± 0.047 | -0.0065 ± 0.011 | -0.01 ± 0.021 | 0.0245 ± 0.08 | -0.035 ± 0.037 | -0.02 ± 0.052 | -0.0055 ± 0.015 | 0.206 ± 0.0028 | -0.0245 ± 0.011 | -0.0525 ± 0.019 | -0.0115 ± 0.0092 | -0.0285 ± 0.016 | -0.0215 ± 0.0035 | 0.0495 ± 0.025
10 | CASM3C:CD142/Tissue Factor | -0.0185 ± 0.016 | -0.043 ± 0.024 | 0.0075 ± 0.022 | 0.0285 ± 0.012 | -0.01 ± 0.013 | -0.0345 ± 0.021 | 0.007 ± 0.02 | -0.0175 ± 0.0021 | -0.0085 ± 0.054 | -0.0095 ± 0.046 | 0.0195 ± 0.13 | 0.0125 ± 0.026 | -0.031 ± 0.028 | -0.0325 ± 0.015 | -0.0025 ± 0.016 | -0.0125 ± 0.0035 | 0.008 ± 0.024 | -0.0145 ± 0.023 | -0.0275 ± 0.012 | 0.0175 ± 0.018
11 | HDF3CGF:CXCL8/IL-8 | -0.0055 ± 0.00071 | -0.001 | 0.0045 ± 0.011 | 0.0245 ± 0.0064 | -0.01 ± 0.014 | -0.007 ± 0.013 | 0.008 ± 0.037 | -0.003 | -0.011 ± 0.0042 | 0.007 ± 0.016 | -0.0045 ± 0.0035 | -0.0005 ± 0.0021 | 0.0015 ± 0.005 | -1.07 ± 0.012 | -0.0325 ± 0.04 | -0.011 ± 0.0028 | 0.009 ± 0.024 | 0.0015 ± 0.0021 | 0.0035 ± 0.0021 | 0.017 ± 0.013
12 | HDF3CGF:SRB | 0.013 ± 0.021 | -0.002 ± 0.016 | 0.0845 ± 0.0035 | 0.081 ± 0.0042 | 0.0055 ± 0.044 | 0.0255 ± 0.056 | 0.023 ± 0.085 | -0.0275 ± 0.0078 | 0.008 ± 0.0014 | 0.0145 ± 0.05 | 0.024 ± 0.0042 | 0.022 ± 0.011 | 0.0245 ± 0.005 | -0.458 ± 0.051 | 0.0095 ± 0.052 | 0.0215 ± 0.06 | 0.02 ± 0.061 | -0.0045 ± 0.0064 | -0.009 ± 0.052 | -0.002 ± 0.033
13 | lMphg:CD106/VCAM-1 | -0.0025 ± 0.0064 | -0.007 ± 0.017 | -0.008 ± 0.025 | -0.006 ± 0.025 | -0.007 ± 0.011 | -0.0125 ± 0.0092 | -0.022 ± 0.0071 | 0.0135 ± 0.011 | 0.0055 ± 0.0092 | 0.0075 ± 0.0035 | -0.0255 ± 0.033 | 0.0065 ± 0.028 | -0.012 ± 0.028 | -0.0615 ± 0.025 | -0.0185 ± 0.012 | -0.014 ± 0.0057 | -0.0175 ± 0.0092 | -0.0155 ± 0.025 | -0.012 ± 0.024 | -0.0805 ± 0.018
